Results reported in patent US9522177B2, “Antimicrobial and immunostimulatory system comprising an oxidoreductase enzyme” (Institute of Technology Sligo, priority 2006, dated 2016).

Legend:
[1] = system: clinical isolates of Mastitis causing Staphylococcus aureus; test: Inhibition assay (3 day repeats), mastitis isolates; format: cell-based; details: for sensitivity of clinical isolate number 15: Mastitis causing Staphylococcus aureus isolate number 15, FIG. 11b
Experimental: 22 isolates of Staphylococcus aureus from clinical mastitis obtained from Sligo regional Veterinary Laboratories are grown on nutrient agar or in nutrient broth for 24 hrs at 37° C.
Agar plates are inoculated by swabbing overnight culture onto the plate surface. Plates are allowed to stand at room temperature for 15 minutes before use. Wells 8.2 mm diameter are bored into the surface of the agar. One hundred and eighty μl of sample is placed into each well. The samples diffuse into the agar around the well and are assayed for an ability to produce a zone of inhibition. Plates are incubated for 24, 48 or 72 hrs and zones of inhibition are measured using an Autodata automatic zone reader. The diameter of zones, including the diameter of the well (8.2 mm), is recorded.

L929 cells = test: ISO 10993-5 agar overlay cytotoxicity (neutral red); details: positive control, 24 hrs
Experimental: ISO 10993, agar overlay tests for cytotoxicity: in vitro method is also used, employing L929 cells (mouse fibroblasts ECACC 85011425). In brief; a confluent monolayer of cells is incubated, this is then covered with a layer fresh medium (EMEM, 2 mM L-Glutamine, 5% FBS, 2% Penicillin-Streptomycin) containing 1.5 g/l of soft agar and allowed to solidify. One tenth of the surface is covered with test materials (previously described) and incubated for 24 hrs. Post incubation the test material is carefully removed and a vital stain (neutral red) in fresh media added. After incubation this is removed, the cells washed and then the dye extracted from the cells and quantified spectrophotometrically for cell viability.
Percent toxicity was calculated according to the formula: % Toxicity=1−(OD average of test material wells/average OD of corresponding control wells (sodium azide added))×100. Included in the assay are a 50% concentration of A^3IS, a range of concentrations of commercial silver containing gel and commercial zinc containing gel product, compared to sodium azide (positive control). […] For the agar overlay toxicity assay the amount of test materials used was similar to that used for the initial direct contact assays of 100 mg per well however the contact time was extended to 24 hrs.

Compound | sensitivity of clinical isolate number 15 [1] | further results
CN[C@H](CC(C)C)C(=O)N[C@H]1C(=O)N[C@@H](CC(N)=O)C(=O)N[C@H]2C(=O)N[C@H]3C(=O)N[C@H](C(=O)N[C@H](C(=O)O)c4cc(O)cc(O)c4-c4cc3ccc4O)[C@H](O)c3ccc(c(Cl)c3)Oc3cc2cc(c3O[C@@H]2O[C@H](CO)[C@@H](O)[C@H](O)[C@H]2O[C@H]2C[C@](C)(N)[C@H](O)[C@H](C)O2)Oc2ccc(cc2Cl)[C@H]1O [Vancomycin] | resistant | 
[N-]=[N+]=[N-] [sodium azide] |  | % Toxicity (L929 cells): 100%
[H]/N=C(/N)N[C@H]1[C@H](O)[C@@H](O)[C@H](O[C@@H]2O[C@@H](C)[C@](O)(C=O)[C@H]2O[C@@H]2O[C@@H](CO)[C@H](O)[C@@H](O)[C@@H]2NC)[C@@H](N/C(N)=N\[H])[C@@H]1O [Streptomycin] | resistant | 
Nisin [2% Nisin] |  | resistant colonies in zone of inhibition assays ([1]; FIG. 11e): resistant colony within the zone of inhibition
O=C(N[C@H](CO)[C@H](O)c1ccc([N+](=O)[O-])cc1)C(Cl)Cl [Chloramphenicol] | only mild sensitivity | 
